{"source": "patent US11529436B2", "about": "“Engineered three-dimensional skin tissues, arrays thereof, and methods of making the same” (Organovo, Inc., priority 2014, dated 2022)", "format_in_all_cases": "cell-based, human", "key": {"[1]": {"tested_on": "bioprinted full thickness skin tissue", "experiment": "Lactate dehydrogenase (LDH) activity in media of bioprinted skin tissue, skin irritation test", "source_text": "Bio-ink was generated by a cellular mixture of 100% primary adult human dermal fibroblasts (HDFa) in 8% gelatin (NOVOGEL 2.0) at a concentration of 100 million cells per milliliter. The cell: gelatin ratio was altered to reduce the cellular density of the dermal sheet to better mimic dermal tissue in native skin. Three-dimensional bio-ink constructs were printed by continuous deposition using the NOVOGEN BIOPRINTER platform in a 4 mm×4 mm×0.5 mm base to create a dermal structure resembling a sheet. […] The transwell printing surface contained a polytetrafluoroethylene (PTFE) membrane coated with equimolar mixture of types I and III collagen (bovine) with pores 3 μm in size. Epidermal cell paste containing a mixture of 100% primary neonatal human epidermal keratinocytes (HEKn) was then printed on top of the dermal bio-ink. Cell paste was measured post print at 87.1% viable by trypan exclusion assay. Cell numbers in the deposited epidermal layer was estimated at 60,000 cells by cell counting on a Cell-O-Meter. Immediately following the print, constructs were placed at 4° C. for 10 minutes. Cold media was then added to the outer well of the transwell in a volume of 3 ml. The media used for subsequent growth and maintenance of the skin tissue was a 50:50 ratio of HDFa: HEKn media. The initial volume added was sufficient to submerge the structure. All subsequent media changes used warmed media (37° C.) added to the outer well of the transwell and not to the inner basket. Media was changed 48 hours later and reduced to a volume of 1.5 ml per well to bring the structure to an air-liquid interface (ALI). Media and subsequently changed 48 hours after that (day 4) at a volume of 1.5 ml. […] IL-1α production (R&D Systems) was analyzed in a colorimetric assays per manufacturer's protocol. Media was analyzed for lactate dehydrogenase as a marker for cytotoxicity. IL-1α production was assessed as a complementary endpoint to classic cytotoxicity testing to improve predictability of irritants. […] Viability was measured as fluorescence in the media by conversion of resazurin to resorufin. […]"}, "[2]": {"tested_on": "bioprinted full thickness skin tissue", "experiment": "Histological analysis of bioprinted skin tissue after irritant treatment (H&E, CK5/IVL, CK10, collagen 3, PCNA, TUNEL)", "settings": "1% TRITON X-100, 1 hour exposure", "source_text": "(§1) Bio-ink was generated by a cellular mixture of 100% primary adult human dermal fibroblasts (HDFa) in 8% gelatin (NOVOGEL 2.0) at a concentration of 100 million cells per milliliter. The cell: gelatin ratio was altered to reduce the cellular density of the dermal sheet to better mimic dermal tissue in native skin. Three-dimensional bio-ink constructs were printed by continuous deposition using the NOVOGEN BIOPRINTER platform in a 4 mm×4 mm×0.5 mm base to create a dermal structure resembling a sheet. One tissue construct was printed per transwell in a 6-well plate. The transwell printing surface contained a polytetrafluoroethylene (PTFE) membrane coated with equimolar mixture of types I and III collagen (bovine) with pores 3 μm in size. Epidermal cell paste containing a mixture of 100% primary neonatal human epidermal keratinocytes (HEKn) was then printed on top of the dermal bio-ink. Cell paste was measured post print at 87.1% viable by trypan exclusion assay. Cell numbers in the deposited epidermal layer was estimated at 60,000 cells by cell counting on a Cell-O-Meter. Immediately following the print, constructs were placed at 4° C. for 10 minutes. Cold media was then added to the outer well of the transwell in a volume of 3 ml. The media used for subsequent growth and maintenance of the skin tissue was a 50:50 ratio of HDFa: HEKn media. The initial volume added was sufficient to submerge the structure. All subsequent media changes used warmed media (37° C.) added to the outer well of the transwell and not to the inner basket. Media was changed 48 hours later and reduced to a volume of 1.5 ml per well to bring the structure to an air-liquid interface (ALI). Media and subsequently changed 48 hours after that (day 4) at a volume of 1.5 ml. On day 5, media was changed and further reduced to 1 ml per well and subsequently changed daily. On day 10, skin tissues were subject to a skin irritation test method using 1% TRITON X-100. 1% TRITON X-100 is a known irritant and reference chemical currently used in other 3D skin models. Methods were based on OECD guidelines 439 and 431 for applying human skin models to in vitro skin irritation or corrosion, respectively. On day 10, conditioned media was saved (designated time=0) and 1 ml of fresh media was added to the outer well of the transwell. The printed skin tissue was then treated with 20 μl of PBS as a negative control or with 20 μl of 1% TRITON X-100 as a positive control and known irritant. Test substances were pipetted manually to the apical surface of the tissue. TRITON X-100 was diluted to a 1% aqueous solution in deionized water and sterile filtered through a 20 micron filter before use. Samples were incubated for 30 minutes at 37° C. followed by 30 minutes at room temperature for a total of 60 minutes. Media was saved (designated time=1 hour). Samples were then washed extensively by PBS rinsing. Transwells were then placed in a new 6-well plate with fresh media (1 ml) added to the outer well then placed back into 37° C. overnight. The media was then changed at 24 hours and at 48 hours post treatment. Total media collected included time points=−48, 0, 1, 24, and 48 hours. IL-1α production (R&D Systems) was analyzed in a colorimetric assays per manufacturer's protocol. Media was analyzed for lactate dehydrogenase as a marker for cytotoxicity. IL-1α production was assessed as a complementary endpoint to classic cytotoxicity testing to improve predictability of irritants. Keratinocytes normally produce and release inflammatory cytokine IL-1α in response to chemical or physical stress. At 48 hours post treatment (day 12), tissues were either lysed for RNA extraction and subsequent qPCR analysis, or tested for viability by alamar blue assay then rinsed in PBS and fixed with 2% PFA for histological analysis. Alamar blue (Life Technologies) was added per manufacturer's instructions to media and incubated with tissue constructs (1 ml) at 37° C. for 3 hours. […]"}, "[3]": {"tested_on": "bioprinted full thickness skin tissue", "experiment": "Viability of bioprinted skin tissue by alamar blue assay, skin irritation test", "source_text": "Bio-ink was generated by a cellular mixture of 100% primary adult human dermal fibroblasts (HDFa) in 8% gelatin (NOVOGEL 2.0) at a concentration of 100 million cells per milliliter. The cell: gelatin ratio was altered to reduce the cellular density of the dermal sheet to better mimic dermal tissue in native skin. Three-dimensional bio-ink constructs were printed by continuous deposition using the NOVOGEN BIOPRINTER platform in a 4 mm×4 mm×0.5 mm base to create a dermal structure resembling a sheet. […] The transwell printing surface contained a polytetrafluoroethylene (PTFE) membrane coated with equimolar mixture of types I and III collagen (bovine) with pores 3 μm in size. Epidermal cell paste containing a mixture of 100% primary neonatal human epidermal keratinocytes (HEKn) was then printed on top of the dermal bio-ink. Cell paste was measured post print at 87.1% viable by trypan exclusion assay. Cell numbers in the deposited epidermal layer was estimated at 60,000 cells by cell counting on a Cell-O-Meter. Immediately following the print, constructs were placed at 4° C. for 10 minutes. Cold media was then added to the outer well of the transwell in a volume of 3 ml. The media used for subsequent growth and maintenance of the skin tissue was a 50:50 ratio of HDFa: HEKn media. The initial volume added was sufficient to submerge the structure. All subsequent media changes used warmed media (37° C.) added to the outer well of the transwell and not to the inner basket. Media was changed 48 hours later and reduced to a volume of 1.5 ml per well to bring the structure to an air-liquid interface (ALI). Media and subsequently changed 48 hours after that (day 4) at a volume of 1.5 ml. On day 5, media was changed and further reduced to 1 ml per well and subsequently changed daily. On day 10, skin tissues were subject to a skin irritation test method using 1% TRITON X-100. 1% TRITON X-100 is a known irritant and reference chemical currently used in other 3D skin models. Methods were based on OECD guidelines 439 and 431 for applying human skin models to in vitro skin irritation or corrosion, respectively. On day 10, conditioned media was saved (designated time=0) and 1 ml of fresh media was added to the outer well of the transwell. The printed skin tissue was then treated with 20 μl of PBS as a negative control or with 20 μl of 1% TRITON X-100 as a positive control and known irritant. […] IL-1α production (R&D Systems) was analyzed in a colorimetric assays per manufacturer's protocol. Media was analyzed for lactate dehydrogenase as a marker for cytotoxicity. IL-1α production was assessed as a complementary endpoint to classic cytotoxicity testing to improve predictability of irritants. […] Viability was measured as fluorescence in the media by conversion of resazurin to resorufin. […]"}, "[4]": {"tested_on": "bioprinted full thickness skin tissue", "experiment": "Gene expression (qPCR) analysis of bioprinted skin tissue after irritant treatment", "settings": "1% TRITON X-100, 1 hour exposure", "source_text": "Bio-ink was generated by a cellular mixture of 100% primary adult human dermal fibroblasts (HDFa) in 8% gelatin (NOVOGEL 2.0) at a concentration of 100 million cells per milliliter. The cell: gelatin ratio was altered to reduce the cellular density of the dermal sheet to better mimic dermal tissue in native skin. Three-dimensional bio-ink constructs were printed by continuous deposition using the NOVOGEN BIOPRINTER platform in a 4 mm×4 mm×0.5 mm base to create a dermal structure resembling a sheet. One tissue construct was printed per transwell in a 6-well plate. The transwell printing surface contained a polytetrafluoroethylene (PTFE) membrane coated with equimolar mixture of types I and III collagen (bovine) with pores 3 μm in size. Epidermal cell paste containing a mixture of 100% primary neonatal human epidermal keratinocytes (HEKn) was then printed on top of the dermal bio-ink. Cell paste was measured post print at 87.1% viable by trypan exclusion assay. Cell numbers in the deposited epidermal layer was estimated at 60,000 cells by cell counting on a Cell-O-Meter. Immediately following the print, constructs were placed at 4° C. for 10 minutes. Cold media was then added to the outer well of the transwell in a volume of 3 ml. The media used for subsequent growth and maintenance of the skin tissue was a 50:50 ratio of HDFa: HEKn media. The initial volume added was sufficient to submerge the structure. All subsequent media changes used warmed media (37° C.) added to the outer well of the transwell and not to the inner basket. Media was changed 48 hours later and reduced to a volume of 1.5 ml per well to bring the structure to an air-liquid interface (ALI). Media and subsequently changed 48 hours after that (day 4) at a volume of 1.5 ml. On day 5, media was changed and further reduced to 1 ml per well and subsequently changed daily. On day 10, skin tissues were subject to a skin irritation test method using 1% TRITON X-100. 1% TRITON X-100 is a known irritant and reference chemical currently used in other 3D skin models. Methods were based on OECD guidelines 439 and 431 for applying human skin models to in vitro skin irritation or corrosion, respectively. On day 10, conditioned media was saved (designated time=0) and 1 ml of fresh media was added to the outer well of the transwell. The printed skin tissue was then treated with 20 μl of PBS as a negative control or with 20 μl of 1% TRITON X-100 as a positive control and known irritant. […] IL-1α production (R&D Systems) was analyzed in a colorimetric assays per manufacturer's protocol. Media was analyzed for lactate dehydrogenase as a marker for cytotoxicity. IL-1α production was assessed as a complementary endpoint to classic cytotoxicity testing to improve predictability of irritants. […]"}, "[5]": {"tested_on": "bioprinted full thickness skin tissue", "experiment": "IL-1α production in media of bioprinted skin tissue (colorimetric assay), skin irritation test", "source_text": "as §1, with “One tissue construct was printed per transwell in a 6-well plate.” left out, “Samples were incubated for 30 minutes at 37° C. followed by 30 minutes at room temperature for a total of 60 minutes.” left out, “Transwells were then placed in a new 6-well plate with fresh media (1 ml) added to the outer well then placed back into 37° C. overnight.” left out, “[…] Viability was measured as fluorescence in the media” for “At 48 hours post treatment (day 12), tissues were either lysed for RNA extraction and subsequent qPCR analysis, or tested for viability”, “conversion of resazurin” for “alamar blue assay then rinsed in PBS and fixed with 2% PFA for histological analysis. Alamar blue (Life Technologies) was added per manufacturer's instructions”, “resorufin.” for “media and incubated with tissue constructs (1 ml) at 37° C. for 3 hours.”"}, "[6]": {"settings": "48 hours post treatment (day 12)"}, "[7]": {"settings": "1% TRITON X-100, 1 hour exposure, 48 hours post treatment"}}}
{"substance": "TRITON X-100", "values": [{"measurement": "induction in LDH activity compared to PBS control", "setting": "[1]; 1% TRITON X-100, 1 hour exposure, 6-well format, at 1 hour, 24 hours and 48 hours post treatment", "value": "roughly 2 fold"}, {"measurement": "LDH activity higher than PBS", "setting": "[1]; 15 minute exposure, 5% SDS or 1% TRITON X-100, 24 well plate format, 42 hours post exposure", "value": "about 1.4 fold"}, {"measurement": "irritancy to bioprinted skin suggested by histology", "setting": "[2]", "value": "irritant"}, {"measurement": "CK5 positive basal keratinocyte layer", "setting": "[2]; [6]", "value": "fragmented"}, {"measurement": "Collagen 3 staining compared to the PBS control", "setting": "[2]; [6]", "value": "reduction in dermal fibroblast function"}, {"measurement": "H&E histology", "setting": "[2]; [6]", "value": "separation of the epidermal and dermal layers"}, {"measurement": "macroscopic appearance of treated tissues", "setting": "[2]; [6]", "value": "appeared similar to PBS control tissues macroscopically"}, {"measurement": "proliferation by PCNA staining", "setting": "[2]; dermal fibroblasts and basal layer, day 12", "value": "reduction in proliferation"}, {"measurement": "apoptosis by TUNEL staining", "setting": "[2]; dermal layer, day 12", "value": "increase in apoptosis"}, {"measurement": "reduction in viability as compared to the PBS control (alamar blue)", "setting": "[3]; [7]", "value": 80, "unit": "%"}, {"measurement": "viability compared to the PBS control (alamar blue assay)", "setting": "[3]; 15 minute exposure, 5% SDS or 1% TRITON X-100, 24 well plate format, 42 hours post treatment", "value": 68.75, "unit": "%"}, {"measurement": "CK1 and CK10 gene expression", "setting": "[4]; 48 hours post exposure", "value": "reduced"}, {"measurement": "collagen production of types 1, 3, and 4 collagen (gene expression)", "setting": "[4]; 48 hours post exposure", "value": "reduced"}, {"measurement": "expression of both epidermal and dermal markers", "setting": "[4]; 48 hours post exposure", "value": "dramatically reduces"}, {"measurement": "IL1α gene expression increase in comparison to the PBS control", "setting": "[4]; 48 hours post treatment", "value": "about 3 fold"}, {"measurement": "IL-1α levels", "setting": "[5]; 1% TRITON X-100, 1 hour exposure, 24 hours post treatment", "value": "remained high"}, {"measurement": "IL-1α levels", "setting": "[5]; [7]", "value": "returned to baseline"}, {"measurement": "IL-1α activity in comparison to PBS control", "setting": "[5]; 1% TRITON X-100, 1 hour exposure, greatest difference 1 hour post treatment", "value": "increased"}, {"measurement": "IL-1α production", "setting": "[5]; 15 minute exposure, 5% SDS or 1% TRITON X-100, 24 well plate format", "value": "induced"}]}
